SMILES strings stand for the structures. Values after ≈ are worked out from the molar mass of the structure shown.

The values below come from ChEMBL document CHEMBL3112512, “Microwave induced three-component synthesis and antimycobacterial activity of benzopyrazolo[3,4-b]quinolindiones” (2014).

Common to all, as to format: functional
In test [1] the test system is Mycobacterium intracellulare. Kind of test: Antimycobacterial activity against Mycobacterium intracellulare MNT1408 clinical isolate by MTT assay. On the technique in general: Tetrazolium dyes change colour on reduction, which living cells bring about.
Test [2] concerns Mycobacterium scrofulaceum. Put plainly: Antimycobacterial activity against Mycobacterium scrofulaceum MNT1193 clinical isolate by MTT assay.
The subject of the next test is Mycobacterium szulgai. Put plainly: Antimycobacterial activity against Mycobacterium szulgai MNT1100 clinical isolate by MTT assay.
The subject of test [3] is Mycolicibacterium fortuitum. Put plainly: Antimycobacterial activity against Mycobacterium fortuitum MNT1073 clinical isolate by MTT assay.
Another test deals with Mycobacteroides chelonae. Kind of test: Antimycobacterial activity against Mycobacterium chelonae MNT1407 clinical isolate by MTT assay.
Test [4] has as its system Mycobacterium tuberculosis. Kind of test: Antimycobacterial activity against streptomycin, isoniazid, rifampicin, ethambutol and pirazynamide-susceptible Mycobacterium tuberculosis H37Rv ATCC 27294 by MTT assay.

For the compound `NNC(=O)c1ccncc1` [ISONIAZID], the minimum inhibitory concentration (MIC) in test [1] was more than 0.5 µg/mL; in test [2] it was more than 0.5 µg/mL; against Mycobacterium szulgai it was more than 0.5 µg/mL; in test [3], more than 0.5 µg/mL; against Mycobacteroides chelonae, more than 0.5 µg/mL; in test [4] it was 0.25 µg/mL (≈ 1.82 µM).

For the compound `COc1ccc(C2C3=C(Nc4[nH]nc(-c5ccccc5)c42)c2ccccc2C(=O)C3=O)cc1` (stereo not given), the MIC (in test [1]; in test [2]; in the test with Mycobacterium szulgai; in test [3]; in the test with Mycobacteroides chelonae; in test [4]) was more than 32 µg/mL in each case.

Turning to `Cc1nn(-c2ccccc2)c2nc3c(c(-c4ccccc4)c12)C(=O)C(=O)c1ccccc1-3`, the MIC in test [1] was more than 32 µg/mL; in test [2], more than 32 µg/mL; against Mycobacterium szulgai, more than 32 µg/mL; in test [3], more than 32 µg/mL; against Mycobacteroides chelonae, more than 32 µg/mL; in test [4], not above 2 µg/mL.

As to `COc1ccc(-c2c3c(nc4[nH]nc(-c5ccc(Cl)cc5)c24)-c2ccccc2C(=O)C3=O)cc1`, the MIC (in test [1]; in test [2]; with Mycobacterium szulgai; in test [3]; in the test on Mycobacteroides chelonae; in test [4]) was more than 32 µg/mL each time.

Regarding `Cc1nn(-c2ccccc2)c2nc3c(c(-c4ccc(F)cc4)c12)C(=O)C(=O)c1ccccc1-3`, the MIC was more than 32 µg/mL in test [1]; more than 32 µg/mL in test [2]; more than 32 µg/mL in the test on Mycobacterium szulgai; more than 32 µg/mL in test [3]; more than 32 µg/mL against Mycobacteroides chelonae; 4 µg/mL (≈ 9.23 µM) in test [4].

`COc1cc(-c2c3c(nc4c2c(C)nn4-c2ccccc2)-c2ccccc2C(=O)C3=O)cc(OC)c1OC`: the MIC (in test [1]; in test [2]; against Mycobacterium szulgai; in test [3]; against Mycobacteroides chelonae; in test [4]) was more than 32 µg/mL throughout.

As to `O=C1C(=O)c2ccccc2C2=C1C(c1ccccc1)c1c(-c3ccc(Cl)cc3)n[nH]c1N2` (stereo not given), the MIC (in test [1]; in test [2]; against Mycobacterium szulgai; in test [3]; against Mycobacteroides chelonae; in test [4]) was more than 32 µg/mL throughout.

As for `Cc1nn(-c2ccccc2)c2nc3c(c(-c4ccc(Cl)cc4)c12)C(=O)C(=O)c1ccccc1-3`, the MIC (in test [1]; in test [2]; with Mycobacterium szulgai; in test [3]; with Mycobacteroides chelonae; in test [4]) was more than 32 µg/mL in each case.

For `Cc1ccc(-c2n[nH]c3c2C(c2ccccc2)C2=C(N3)c3ccccc3C(=O)C2=O)cc1` (stereo not given), the MIC is more than 32 µg/mL in test [1]; more than 32 µg/mL in test [2]; more than 32 µg/mL against Mycobacterium szulgai; more than 32 µg/mL in test [3]; more than 32 µg/mL against Mycobacteroides chelonae; 16 µg/mL (≈ 38.3 µM) in test [4].

As for `Cc1ccc(C2C3=C(Nc4[nH]nc(-c5ccccc5)c42)c2ccccc2C(=O)C3=O)cc1` (stereo not given), the MIC (in test [1]; in test [2]; in the test with Mycobacterium szulgai; in test [3]; against Mycobacteroides chelonae; in test [4]) was more than 32 µg/mL in each case.

For `CO[C@H]1/C=C/O[C@@]2(C)Oc3c(C)c(O)c4c(O)c(c(/C=N/N5CCN(C)CC5)c(O)c4c3C2=O)NC(=O)/C(C)=C\C=C\[C@H](C)[C@H](O)[C@@H](C)[C@@H](O)[C@@H](C)[C@H](OC(C)=O)[C@@H]1C` [RIFAMPIN], the minimal inhibitory concentration (MIC) is more than 0.5 µg/mL in test [1]; more than 0.5 µg/mL in test [2]; more than 0.5 µg/mL in the test on Mycobacterium szulgai; more than 0.5 µg/mL in test [3]; 0.125 µg/mL (≈ 0.152 µM) in the test on Mycobacteroides chelonae; 0.125 µg/mL (≈ 0.152 µM) in test [4].

As to `Cc1ccc(-c2c3c(nc4c2c(C)nn4-c2ccccc2)-c2ccccc2C(=O)C3=O)cc1`, the MIC in test [1] was more than 32 µg/mL; in test [2], more than 32 µg/mL; in the test with Mycobacterium szulgai, more than 32 µg/mL; in test [3], more than 32 µg/mL; in the test with Mycobacteroides chelonae, more than 32 µg/mL; in test [4] it was 4 µg/mL (≈ 9.31 µM).

In the case of `O=C1C(=O)c2ccccc2C2=C1C(c1ccccc1)c1c(-c3ccccc3)n[nH]c1N2` (stereo not given), the MIC (in test [1]; in test [2]; with Mycobacterium szulgai; in test [3]; against Mycobacteroides chelonae; in test [4]) was more than 32 µg/mL each time.

On to `O=C1C(=O)c2ccccc2C2=C1C(c1ccccc1)c1c(-c3ccc([N+](=O)[O-])cc3)n[nH]c1N2` (stereo not given), for which the minimal inhibitory concentration (MIC) was more than 32 µg/mL in test [1]; more than 32 µg/mL in test [2]; more than 32 µg/mL against Mycobacterium szulgai; more than 32 µg/mL in test [3]; more than 32 µg/mL in the test with Mycobacteroides chelonae; 32 µg/mL (≈ 71.4 µM) in test [4].

For `Cc1ccc(-c2n[nH]c3nc4c(c(-c5ccc([N+](=O)[O-])cc5)c23)C(=O)C(=O)c2ccccc2-4)cc1`, the MIC (in test [1]; in test [2]; against Mycobacterium szulgai; in test [3]; in the test with Mycobacteroides chelonae; in test [4]) was more than 32 µg/mL each time.

By MIC is commonly meant the least concentration at which growth counts as inhibited.
